Assays:
Assay type in all cases: cell-based
GSPT1 = biological target: T1, GSPT1 (Homo sapiens, UniProt P15170+Q96SW2); assay: Western blot degradation of GSPT1 in hPBMC
T1 construct: endogenous in cells; host or cells: hPBMC
Outline: (§1)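 Percent target remaining and DC50 derive from grayscale of Western bands in degrader-treated hPBMC, normalized to an internal control protein and compared with DMSO samples. Gels were SDS-PAGE, transferred onto nitrocellulose and blocked one hour at room temperature.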

IKZF2 = biological target: T2, IKZF2 (Homo sapiens, UniProt Q96SW2+Q9UKS7); assay: Western blot degradation of IKZF2 in hPBMC
T2 construct: endogenous in cells; host or cells: hPBMC
T2 sequence (Q9UKS7 whole entry): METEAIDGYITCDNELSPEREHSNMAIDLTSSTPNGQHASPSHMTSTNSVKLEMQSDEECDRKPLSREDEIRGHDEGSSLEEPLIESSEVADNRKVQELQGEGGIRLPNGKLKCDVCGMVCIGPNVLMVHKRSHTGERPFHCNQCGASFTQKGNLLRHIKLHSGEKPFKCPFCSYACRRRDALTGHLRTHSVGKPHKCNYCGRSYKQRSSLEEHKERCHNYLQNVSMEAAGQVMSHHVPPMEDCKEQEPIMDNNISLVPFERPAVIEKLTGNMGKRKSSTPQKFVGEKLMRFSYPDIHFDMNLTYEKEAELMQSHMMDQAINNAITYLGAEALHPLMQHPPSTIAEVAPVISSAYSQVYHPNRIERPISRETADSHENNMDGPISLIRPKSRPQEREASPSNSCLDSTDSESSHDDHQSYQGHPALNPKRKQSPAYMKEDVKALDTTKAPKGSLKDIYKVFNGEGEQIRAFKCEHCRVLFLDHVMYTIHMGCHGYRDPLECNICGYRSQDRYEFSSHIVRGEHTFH
T2 sequence (Q96SW2 whole entry): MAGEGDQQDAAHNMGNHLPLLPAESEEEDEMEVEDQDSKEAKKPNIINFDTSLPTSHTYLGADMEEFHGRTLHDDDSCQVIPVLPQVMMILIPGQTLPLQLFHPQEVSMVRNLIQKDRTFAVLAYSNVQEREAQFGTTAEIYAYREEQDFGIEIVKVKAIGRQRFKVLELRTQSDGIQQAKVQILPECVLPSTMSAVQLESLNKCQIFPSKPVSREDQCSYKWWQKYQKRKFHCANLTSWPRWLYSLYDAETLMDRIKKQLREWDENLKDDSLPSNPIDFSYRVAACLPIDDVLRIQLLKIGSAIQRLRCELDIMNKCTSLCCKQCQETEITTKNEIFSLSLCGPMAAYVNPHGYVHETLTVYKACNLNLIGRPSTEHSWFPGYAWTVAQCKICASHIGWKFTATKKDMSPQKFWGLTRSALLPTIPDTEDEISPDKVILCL
T2 sequence (Q16531 whole entry partner): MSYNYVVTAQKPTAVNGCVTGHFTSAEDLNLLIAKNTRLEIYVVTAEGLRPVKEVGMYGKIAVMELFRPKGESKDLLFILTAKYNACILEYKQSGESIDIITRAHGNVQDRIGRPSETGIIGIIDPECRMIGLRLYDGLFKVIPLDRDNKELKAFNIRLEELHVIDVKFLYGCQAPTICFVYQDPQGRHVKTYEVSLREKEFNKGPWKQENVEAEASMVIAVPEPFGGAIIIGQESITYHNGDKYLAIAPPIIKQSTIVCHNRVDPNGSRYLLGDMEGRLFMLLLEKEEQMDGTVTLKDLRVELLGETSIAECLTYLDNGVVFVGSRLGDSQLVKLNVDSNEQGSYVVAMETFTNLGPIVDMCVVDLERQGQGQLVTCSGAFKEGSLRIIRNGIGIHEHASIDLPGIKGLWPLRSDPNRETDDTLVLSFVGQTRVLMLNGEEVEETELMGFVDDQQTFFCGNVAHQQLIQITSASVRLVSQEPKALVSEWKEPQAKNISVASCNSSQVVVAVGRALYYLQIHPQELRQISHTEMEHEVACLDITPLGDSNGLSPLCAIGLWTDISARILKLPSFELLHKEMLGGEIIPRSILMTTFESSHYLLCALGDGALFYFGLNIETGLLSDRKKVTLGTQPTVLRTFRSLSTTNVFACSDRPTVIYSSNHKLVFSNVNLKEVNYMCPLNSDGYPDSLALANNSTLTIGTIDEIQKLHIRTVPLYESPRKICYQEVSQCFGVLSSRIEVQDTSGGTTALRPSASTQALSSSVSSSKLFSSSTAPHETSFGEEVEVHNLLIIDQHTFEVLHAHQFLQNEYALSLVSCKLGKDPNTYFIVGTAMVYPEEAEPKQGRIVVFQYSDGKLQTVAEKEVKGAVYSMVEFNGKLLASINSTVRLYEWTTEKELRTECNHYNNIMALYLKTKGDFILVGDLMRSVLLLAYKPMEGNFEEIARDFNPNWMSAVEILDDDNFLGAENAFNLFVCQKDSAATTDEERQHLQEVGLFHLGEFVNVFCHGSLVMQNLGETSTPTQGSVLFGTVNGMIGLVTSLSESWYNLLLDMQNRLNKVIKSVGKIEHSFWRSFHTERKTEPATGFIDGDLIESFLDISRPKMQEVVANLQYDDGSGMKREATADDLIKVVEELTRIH
Outline: as §1

CK1a = biological target: T3, CK1a (Homo sapiens, UniProt P48729+Q96SW2); assay: Western blot degradation of CK1a in hPBMC
T3 construct: endogenous in cells; host or cells: hPBMC
T3 sequence (P48729 whole entry): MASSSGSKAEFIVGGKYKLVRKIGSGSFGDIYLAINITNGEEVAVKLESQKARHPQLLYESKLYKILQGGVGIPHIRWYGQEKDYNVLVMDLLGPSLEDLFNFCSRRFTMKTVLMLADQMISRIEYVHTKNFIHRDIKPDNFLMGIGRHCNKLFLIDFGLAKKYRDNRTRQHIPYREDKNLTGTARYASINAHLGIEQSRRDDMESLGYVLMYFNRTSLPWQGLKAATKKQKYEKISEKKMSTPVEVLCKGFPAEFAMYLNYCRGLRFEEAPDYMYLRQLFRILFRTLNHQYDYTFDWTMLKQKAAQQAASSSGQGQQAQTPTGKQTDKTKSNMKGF
T3 sequence (Q96SW2 whole entry): as the sequence (Q96SW2 whole entry) above
T3 sequence (Q16531 whole entry partner): as the sequence (Q16531 whole entry partner) above
Outline: as §1

WEE1 = biological target: T4, WEE1 (Homo sapiens, UniProt P30291+Q96SW2); assay: Western blot degradation of WEE1 in hPBMC
T4 construct: endogenous in cells; host or cells: hPBMC
T4 sequence (P30291 whole entry): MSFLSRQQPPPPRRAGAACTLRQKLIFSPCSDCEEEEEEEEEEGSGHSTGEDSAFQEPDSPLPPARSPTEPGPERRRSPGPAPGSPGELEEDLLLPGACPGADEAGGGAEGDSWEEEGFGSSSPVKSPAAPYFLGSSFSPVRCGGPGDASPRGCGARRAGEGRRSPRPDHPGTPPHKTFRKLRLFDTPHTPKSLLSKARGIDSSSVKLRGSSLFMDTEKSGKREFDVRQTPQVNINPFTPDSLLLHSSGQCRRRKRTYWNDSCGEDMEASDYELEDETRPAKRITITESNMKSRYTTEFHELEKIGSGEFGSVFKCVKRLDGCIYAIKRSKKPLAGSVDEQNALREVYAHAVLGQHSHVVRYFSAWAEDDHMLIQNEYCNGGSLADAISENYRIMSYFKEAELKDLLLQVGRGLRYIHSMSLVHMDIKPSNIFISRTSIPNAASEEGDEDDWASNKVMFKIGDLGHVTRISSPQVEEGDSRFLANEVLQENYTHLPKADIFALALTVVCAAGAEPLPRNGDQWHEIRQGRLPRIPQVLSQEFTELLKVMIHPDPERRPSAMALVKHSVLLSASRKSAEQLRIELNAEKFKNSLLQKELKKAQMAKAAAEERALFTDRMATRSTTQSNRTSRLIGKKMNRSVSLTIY
T4 sequence (Q96SW2 whole entry): as the sequence (Q96SW2 whole entry) above
T4 sequence (Q16531 whole entry partner): as the sequence (Q16531 whole entry partner) above
Outline: as §1

IKZF1 = biological target: T5, IKZF1 (Homo sapiens, UniProt Q13422+Q96SW2); assay: Western blot degradation of IKZF1 in hPBMC
T5 construct: endogenous in cells; host or cells: hPBMC
T5 sequence (Q13422 whole entry): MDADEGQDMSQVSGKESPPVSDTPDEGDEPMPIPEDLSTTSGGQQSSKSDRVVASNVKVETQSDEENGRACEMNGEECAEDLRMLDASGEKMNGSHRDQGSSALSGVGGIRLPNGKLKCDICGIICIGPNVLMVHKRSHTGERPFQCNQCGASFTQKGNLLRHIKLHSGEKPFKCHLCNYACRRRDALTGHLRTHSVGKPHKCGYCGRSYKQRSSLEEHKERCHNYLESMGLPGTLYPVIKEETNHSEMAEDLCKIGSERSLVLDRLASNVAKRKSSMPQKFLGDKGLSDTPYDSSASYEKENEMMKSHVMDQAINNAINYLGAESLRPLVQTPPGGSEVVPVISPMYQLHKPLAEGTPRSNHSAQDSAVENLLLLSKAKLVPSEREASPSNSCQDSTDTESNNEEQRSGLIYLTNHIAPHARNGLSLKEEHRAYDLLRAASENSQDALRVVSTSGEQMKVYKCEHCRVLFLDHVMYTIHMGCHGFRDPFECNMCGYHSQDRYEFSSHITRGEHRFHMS
T5 sequence (Q96SW2 whole entry): as the sequence (Q96SW2 whole entry) above
T5 sequence (Q16531 whole entry partner): as the sequence (Q16531 whole entry partner) above
Outline: as §1

IKZF3 = biological target: T6, IKZF3 (Homo sapiens, UniProt Q96SW2+Q9UKT9); assay: Western blot degradation of IKZF3 in hPBMC
T6 construct: endogenous in cells; host or cells: hPBMC
T6 sequence (Q9UKT9 whole entry): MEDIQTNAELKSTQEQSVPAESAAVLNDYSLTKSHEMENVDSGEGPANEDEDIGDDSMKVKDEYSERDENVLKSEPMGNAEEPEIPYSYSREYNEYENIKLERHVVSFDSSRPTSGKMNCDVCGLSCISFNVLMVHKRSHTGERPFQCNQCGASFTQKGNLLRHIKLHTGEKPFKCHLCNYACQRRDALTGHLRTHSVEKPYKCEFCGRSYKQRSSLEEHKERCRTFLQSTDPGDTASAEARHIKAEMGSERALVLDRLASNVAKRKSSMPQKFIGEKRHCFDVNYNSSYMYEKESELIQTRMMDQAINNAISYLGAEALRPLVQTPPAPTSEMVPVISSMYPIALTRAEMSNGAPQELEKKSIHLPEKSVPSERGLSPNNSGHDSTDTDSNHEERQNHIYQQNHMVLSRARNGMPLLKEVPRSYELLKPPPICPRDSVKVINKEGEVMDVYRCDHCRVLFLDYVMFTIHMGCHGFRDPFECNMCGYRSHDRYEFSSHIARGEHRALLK
T6 sequence (Q96SW2 whole entry): as the sequence (Q96SW2 whole entry) above
T6 sequence (Q16531 whole entry partner): as the sequence (Q16531 whole entry partner) above
Outline: as §1

Row | Structure (SMILES) | Degradation of substrate protein GSPT1 (substrate protein remaining %) (GSPT1) | Degradation of substrate protein IKZF2 (substrate protein remaining %) (IKZF2) | Degradation of substrate protein CK1a (substrate protein remaining %) (CK1a) | Degradation of substrate protein WEE1 (substrate protein remaining %) (WEE1) | Degradation of substrate protein IKZF1 (substrate protein remaining %) (IKZF1) | Degradation of substrate protein IKZF3 (substrate protein remaining %) (IKZF3)
1 | O=C1CCN(c2cnc(CCl)c(F)c2)C(=O)N1 [GT-07557, 1-(6-(chloromethyl)-5-fluoropyridin-3-yl)dihydropyrimidine-2,4(1H,3H)-dione] | B (B is defined as substrate protein remaining % > 80%) | B (B is defined as substrate protein remaining % > 80%) | A (A is defined as 0% ≤ substrate protein remaining % ≤ 80%) | A (A is defined as 0% ≤ substrate protein remaining % ≤ 80%) | A (A is defined as 0% ≤ substrate protein remaining % ≤ 80%) | B (B is defined as substrate protein remaining % > 80%)
2 | O=C1CCC(Nc2ccc(CO)nc2)C(=O)N1 (stereo not drawn) [GT-07446, 3-((6-(hydroxymethyl)pyridin-3-yl)amino)piperidine-2,6-dione] | A (A is defined as 0% ≤ substrate protein remaining % ≤ 80%) | A (A is defined as 0% ≤ substrate protein remaining % ≤ 80%) | A (A is defined as 0% ≤ substrate protein remaining % ≤ 80%) | A (A is defined as 0% ≤ substrate protein remaining % ≤ 80%) | A (A is defined as 0% ≤ substrate protein remaining % ≤ 80%) | A (A is defined as 0% ≤ substrate protein remaining % ≤ 80%)
3 | CC(C)(C)[Si](C)(C)OCc1ccc(NC2CCC(=O)NC2=O)cn1 (stereo not drawn) [GT-07445, 3-((6-(((tert-butyldimethylsilyl)oxy)methyl)pyridin-3-yl)amino)piperidine-2,6-dione] | A (A is defined as 0% ≤ substrate protein remaining % ≤ 80%) | B (B is defined as substrate protein remaining % > 80%) | A (A is defined as 0% ≤ substrate protein remaining % ≤ 80%) | A (A is defined as 0% ≤ substrate protein remaining % ≤ 80%) | A (A is defined as 0% ≤ substrate protein remaining % ≤ 80%) | B (B is defined as substrate protein remaining % > 80%)
4 | CC(C)(C)[Si](C)(C)OCc1ccc(NC2CCC(=O)NC2=O)nn1 (stereo not drawn) [GT-07726, 3-((6-(((tert-butyldimethylsilyl)oxy)methyl)pyridazin-3-yl)amino)piperidine-2,6-dione] | B (B is defined as substrate protein remaining % > 80%) | A (A is defined as 0% ≤ substrate protein remaining % ≤ 80%) | B (B is defined as substrate protein remaining % > 80%) | A (A is defined as 0% ≤ substrate protein remaining % ≤ 80%) | A (A is defined as 0% ≤ substrate protein remaining % ≤ 80%) | A (A is defined as 0% ≤ substrate protein remaining % ≤ 80%)
5 | O=C1CCN(c2cc(CCl)ccn2)C(=O)N1 [GT-07078, 1-(4-(chloromethyl)pyridin-2-yl)dihydropyrimidine-2,4(1H,3H)-dione] | A (A is defined as 0% ≤ substrate protein remaining % ≤ 80%) | B (B is defined as substrate protein remaining % > 80%) | B (B is defined as substrate protein remaining % > 80%) | B (B is defined as substrate protein remaining % > 80%) | B (B is defined as substrate protein remaining % > 80%) | B (B is defined as substrate protein remaining % > 80%)
6 | O=C1CCN(c2cnc(CCl)cn2)C(=O)N1 [GT-07635, 1-(5-(chloromethyl)pyrazin-2-yl)dihydropyrimidine-2,4(1H,3H)-dione] | B (B is defined as substrate protein remaining % > 80%) | A (A is defined as 0% ≤ substrate protein remaining % ≤ 80%) | A (A is defined as 0% ≤ substrate protein remaining % ≤ 80%) | A (A is defined as 0% ≤ substrate protein remaining % ≤ 80%) | A (A is defined as 0% ≤ substrate protein remaining % ≤ 80%) | A (A is defined as 0% ≤ substrate protein remaining % ≤ 80%)
7 | O=C1CCN(c2cncc(CCl)n2)C(=O)N1 [GT-07728, 1-(6-(chloromethyl)pyrazin-2-yl)dihydropyrimidine-2,4(1H,3H)-dione] | B (B is defined as substrate protein remaining % > 80%) | A (A is defined as 0% ≤ substrate protein remaining % ≤ 80%) | B (B is defined as substrate protein remaining % > 80%) | A (A is defined as 0% ≤ substrate protein remaining % ≤ 80%) | A (A is defined as 0% ≤ substrate protein remaining % ≤ 80%) | A (A is defined as 0% ≤ substrate protein remaining % ≤ 80%)
8 | O=Cc1cncnc1NC1CCC(=O)NC1=O (stereo not drawn) [GT-07805, 4-((2,6-dioxopiperidin-3-yl)amino)pyrimidine-5-carbaldehyde] | B (B is defined as substrate protein remaining % > 80%) | A (A is defined as 0% ≤ substrate protein remaining % ≤ 80%) | B (B is defined as substrate protein remaining % > 80%) | B (B is defined as substrate protein remaining % > 80%) | A (A is defined as 0% ≤ substrate protein remaining % ≤ 80%) | A (A is defined as 0% ≤ substrate protein remaining % ≤ 80%)
9 | CC(C)(C)[Si](C)(C)OCc1ccc(NC2CCC(=O)NC2=O)nc1 (stereo not drawn) [GT-07552, 3-((5-(((tert-butyldimethylsilyl)oxy)methyl)pyridin-2-yl)amino)piperidine-2,6-dione] | B (B is defined as substrate protein remaining % > 80%) | A (A is defined as 0% ≤ substrate protein remaining % ≤ 80%) | B (B is defined as substrate protein remaining % > 80%) | B (B is defined as substrate protein remaining % > 80%) | B (B is defined as substrate protein remaining % > 80%) | B (B is defined as substrate protein remaining % > 80%)
10 | O=C1CCN(c2cc(CCl)c(F)cn2)C(=O)N1 [GT-07199, 1-(4-(chloromethyl)-5-fluoropyridin-2-yl)dihydropyrimidine-2,4(1H,3H)-dione] | A (A is defined as 0% ≤ substrate protein remaining % ≤ 80%) | A (A is defined as 0% ≤ substrate protein remaining % ≤ 80%) | A (A is defined as 0% ≤ substrate protein remaining % ≤ 80%) | B (B is defined as substrate protein remaining % > 80%) | B (B is defined as substrate protein remaining % > 80%) | A (A is defined as 0% ≤ substrate protein remaining % ≤ 80%)
11 | O=C1CCC(c2cc(CO)ccn2)C(=O)N1 (stereo not drawn) [GT-07050, 3-(4-(hydroxymethyl)pyridin-2-yl)piperidine-2,6-dione] | A (A is defined as 0% ≤ substrate protein remaining % ≤ 80%) | B (B is defined as substrate protein remaining % > 80%) | A (A is defined as 0% ≤ substrate protein remaining % ≤ 80%) | B (B is defined as substrate protein remaining % > 80%) | A (A is defined as 0% ≤ substrate protein remaining % ≤ 80%) | A (A is defined as 0% ≤ substrate protein remaining % ≤ 80%)

Reference: US20260274829A1, “NEW E3 UBIQUITIN LIGASE LIGAND, PROTEIN DEGRADATION AGENT AND USE THEREOF” (GLUETACS THERAPEUTICS (SHANGHAI) CO., LTD., priority 2023, published 2026)
